Read-outs that look alike come from different tables or passages of the source.
Assays:
[1] = Plasma testosterone concentrations and PK after oral TSX-010, TSX-011, TSX-012 or unformulated TU in female beagle dogs; assay type: in vivo; conditions: TU 7.5 mg/kg
Protocol: Plasma testosterone concentrations after administration of TSX-010 (TU:Lipid, 1:1), TSX-011 (TU:Lipid, 1:2), and TSX-012 (TU:Lipid, 1:4). Unformulated TU, TSX-010, TSX-011, and TSX-012 formulations were orally administered under either fasted or fed conditions. The fasted condition means animals were fasted overnight, dosing was performed the subsequent morning, and food was served two hours post-dosing. Animals were allowed access to food for another two hours, and monitored if they ate the food. The fed condition means animals were fasted overnight, dosing was performed the subsequent morning, and food was served 15 min. post-dosing. Animals were allowed access to food for another two hours, and monitored if they ate the food. For unformulated TU, blood samples were taken by venipuncture of the jugular vein at 0, 0.5, 1, 2, 3, 4, 6, 8, 12, and 24 hours in both fed and fasted conditions. For TU formulations like TSX-010, TSX-011, TSX-012, blood samples were taken by venipuncture of the jugular vein at 0, 4, 6, 8, 10, 12, 14, 16, 18 and 24 hours in fasted conditions and at 0, 1, 2, 4, 6, 8, 10, 12, 16 and 24 hours in fed conditions in femalebeagle dogs. The administered dosages of TU were either 1.875, 3.75, or 7.5 mg/kg (TU/body weight). Plasma testosterone concentration data, was obtained at day 1 for formulations TSX-010, TSX-011, and TSX-012, and days 1 and 7, for unformulated TU.
(§1) In vivo pK data for TSX-010 (TU:Lipid, 1:1), TSX-011 (TU:Lipid, 1:2), and TSX-012 (TU:Lipid, 1:4) in female Beagle dogs. Unformulated TU, TSX-010, TSX-011, and TSX-012 formulations. In addition to tracking plasma T levels, blood samples taken by jugular vein puncture at 0, 0.5, 1, 2, 3, 4, 6, 8, 12, 24 hours, and the following pharmacokinetic (PK) parameters were analyzed for each formulation and unformulated testosterone and testosterone undecanoate. Table 18 contains PK data for unformulated testosterone and testosterone undecanoate at days 1 and 7, under fasted and fed conditions. Tables 19 and 20 contain PK data for the TSX-010, TSX-011, and TSX-012 formulations under fasted (Table 19) and fed (Table 20) conditions.

[2] = Oral PK (plasma T) of TSX-002, TSX-007, TSX-009, unformulated T and TU in female beagle dogs, fasted or fed; assay type: in vivo; conditions: for Av. AUC (plasma T) / Av. Cmax (plasma T) / Av. Tmax / AUC / Cmax / Tmax: oral 7.5 mg/kg; for AUC / Cmax / Tmax: female, beagle, dog, plasma, po, 7.5 mg/kg; for AUC: read-out: Av. AUC (plasma T); for Cmax: read-out: Av. Cmax (plasma T); for Tmax: read-out: Av. Tmax
Protocol: In vivo pK data TSX-002 (native T:Lipid), TSX-007 (native T:Lipid:TPGS (20% w/w of T)), and TSX-009 (TU:Lipid:TPGS (20% w/w of T)). TSX-002, TSX-007, and TSX-009 formulations were orally administered to female beagle dogs under fasted or fed conditions. Fasted condition means animals were fasted overnight, dosing was performed the subsequent morning, and food was served two hours post-dosing. Animals were allowed access to food for another two hours, and monitored if they ate the food. Fed condition means animals were fasted overnight, dosing was performed the subsequent morning, and food was served 15 min. post-dosing. Animals were allowed access to food for another two hours, and monitored if they ate the food. Blood samples were taken, at 0, 0.5, 1, 2, 3, 4, 6, 8, 12 and 24 hours. The administered dosage of TU was 7.5 mg/kg (TU/body weight). Plasma samples were analyzed on Day 1 and Day 7. Pharmacokinetic data for treatment days 1 and 7, under fasting and fed conditions are reported for unformulated T in Table 2; unformulated TU in Table 3; TSX-002 (T:Lipid) in Table 4; TSX-007 (native T:Lipid:TPGS (20% w/w of T)) in Table 5; and TSX-009 (TU:Lipid:TPGS (20% w/w of T)) in Table 6.
as §1

CCCCCCCCCCC(=O)O[C@H]1CC[C@H]2[C@@H]3CCC4=CC(=O)CC[C@]4(C)[C@H]3CC[C@]12C [Unformulated TU, testosterone undecanoate]
Animals with plasma T > 0.5 ng/mL, percent ([1]; fasted, day 1): (33.3%)
Animals with plasma T > 0.5 ng/mL (responders/treated) ([1]; fasted, day 1, within 24 h): 2/6
Animals with plasma T > 0.5 ng/mL, percent ([1]; fasted, day 7): (50%)
Animals with plasma T > 0.5 ng/mL (responders/treated) ([1]; fasted, day 7, within 24 h): 3/6
Animals with plasma T > 0.5 ng/mL, percent ([1]; fed, day 1): (100%)
Animals with plasma T > 0.5 ng/mL (responders/treated) ([1]; fed, day 1, within 24 h): 6/6
Animals with plasma T > 0.5 ng/mL, percent ([1]; fed, day 7): (100%)
Animals with plasma T > 0.5 ng/mL (responders/treated) ([1]; fed, day 7, within 24 h): 5/6
Plasma profiles on Day 7 ([2]; Day 7, compared to responders to proliposomal TU formulations): plasma profiles dropped significantly
Increase in AUC and Cmax in the presence of food ([2]; fed compared to fasted state): two-fold increase in AUC and Cmax
Av. AUC (plasma T) ([2]; day 1, fasted): 16.63 ± 27.15 ng·h/mL
Av. Cmax (plasma T) ([2]; day 1, fasted): 2.34 ± 3.94 ng/mL
Av. Tmax ([2]; day 1, fasted): 6.50 ± 4.43 h
Av. AUC (plasma T) ([2]; day 1, fed): 108.41 ± 42.73 ng·h/mL
Av. Cmax (plasma T) ([2]; day 1, fed): 33.83 ± 5.06 ng/mL
Av. Tmax ([2]; day 1, fed): 4.0 ± 1.55 h
Av. AUC (plasma T) ([2]; day 7, fasted): 30.88 ± 35.98 ng·h/mL
Av. Cmax (plasma T) ([2]; day 7, fasted): 4.38 ± 5.12 ng/mL
Av. Tmax ([2]; day 7, fasted): 8.0 ± 5.66 h
Av. AUC (plasma T) ([2]; day 7, fed): 20.50 ± 16.59 ng·h/mL
Av. Cmax (plasma T) ([2]; day 7, fed): 5.37 ± 3.78 ng/mL
Av. Tmax ([2]; day 7, fed): 4.17 ± 3.25 h

C[C@]12CC[C@H]3[C@@H](CCC4=CC(=O)CC[C@@]43C)[C@@H]1CC[C@@H]2O [Unformulated T, testosterone]
AUC ([2]; day 1, fasted): 28.7 ± 9.44 ng·h/mL
Cmax ([2]; day 1, fasted): 6.39 ± 2.47 ng/mL
Tmax ([2]; day 1, fasted): 2.17 ± 0.98 h
AUC ([2]; day 1, fed): 36.8 ± 19.4 ng·h/mL
Cmax ([2]; day 1, fed): 9.85 ± 5.8 ng/mL
Tmax ([2]; day 1, fed): 3.67 ± 2.58 h
AUC ([2]; day 7, fasted): 11.2 ± 3.28 ng·h/mL
Cmax ([2]; day 7, fasted): 2.7 ± 0.78 ng/mL
Tmax ([2]; day 7, fasted): 2.5 ± 1.22 h
AUC ([2]; day 7, fed): 43 ± 43.9 ng·h/mL
Cmax ([2]; day 7, fed): 13 ± 13.6 ng/mL
Tmax ([2]; day 7, fed): 3.5 ± 4.42 h

— patent US20190248830A1, “PROLIPOSOMAL TESTOSTERONE UNDECANOATE FORMULATIONS” (WESTERN UNIVERSITY OF HEALTH SCIENCES, priority 2016, published 2019)
